Assay results as given in patent US4536402A, “Vinylogous carboxamides” (Dr. Karl Thomae Gesellschaft mit beschranter Haftung, priority 1982, dated 1985).
Where two headings read alike, the source gives them in different places.

Experiments:
[1] = test system: tonic extensor spasm in the back legs of male mice subjected to maximum electric shock; assay: Anticonvulsant activity in mice: inhibition of tonic extensor spasm after maximum electric shock; format: in vivo, male SPF mice (Chbb:NMRI); conditions: Mus musculus, oral
Procedure: The anticonvulsant activity was tested by measuring the inhibition of tonic extensor spasm in the back legs of male mice subjected to maximum electric shock.
The test animals used were male SPF mice (Chbb:NMRI) weighing from 20-26 gm which had access to standard food and drinking water up to one hour before the oral administration of the test substance.
The test was carried out using the method described by Swinyard, Brown and Goodman (J. Pharmacol. Exp. Ther. 106, 319, [1952]). The electric shock apparatus was constructed in accordance with the specifications provided by Woodbury and Davenport (Arch. Int. Pharmacodyn. 92, 97, [1952]). The electrical stimuli were administered to the animals' temples above their eyes, through steel ball electrodes covered with chamois and moistened with 0.9% NaCl solution. The stimuli were administered using alternating current, 50 Hz and 50 mA, with a duration of 0.2 sec.
The substance to be tested was suspended in 1% tylose mucilage and administered orally in a volume of 0.1 ml/10 gm body weight of the mice, each dosage being administered to 10 mice. The animals were given the shocks 30, 150 and 300 minutes after the administration of the test substance, and the ED50 values were determined graphically or by using the method of Litchfield and Wilcoxon (J. Pharmacol. Exp. Ther. 96, 99, [1949]) from the dosage which protects 50% of the animals from the tonic extension spasm of the rear extremities.

[2] = test system: tonic extensor spasms in the back legs of male rats subjected to maximum electric shock; assay: Anticonvulsant activity in rats: inhibition of tonic extensor spasms after maximum electric shock; format: in vivo, male SPF rats (Chbb:THOM); conditions: for % protected / animals protected: N=6, one hour
Procedure: The anticonvulsant activity was tested by measuring the inhibition of tonic extensor spasms in the back legs of male rats subjected to maximum electric shock.
The test animals used were male SPF rats (Chbb:THOM) weighing from 100-120 gm which had access to standard food and drinking water up to one hour before the oral administration of the test substance.
The test was carried out using the method described by Swinyard, Brown and Goodman (J. Pharmacol. Exp. Ther. 106, 319, [1952]). The electric shock apparatus was constructed in accordance with the specifications provided by Woodbury and Davenport (Arch. Int. Pharmacodyn. 92, 97 [1952]). The electrical stimuli were applied to the temples above the eyes, using moistened steel ball electrodes. The parameters of the stimuli were as follows: alternating current 50 Hz, 50 mA, duration of stimulus 0.2 sec. In all the control animals, clonic and then tonic extension spasm of the extremities occurred; the latter can be prevented by means of effective anticonvulsant agents.
The substance to be tested was suspended in 2% tylose mucilage and administered orally, in a volume of 1 ml/100 gm body weight of the rat, in dosages of 1.56, 3.125, 6.25 and 12.5 mg/kg, each dose being administered to 6 rats. One hour later, the animals were subjected to electric shock and the ED50 was calculated as the dosage which protected 50% of the animals against tonic extension spasms in the rear extremities, with confidence limits for a 5% probability of error.

[3] = Acute toxicity in the rat, p.o.; format: in vivo; conditions: in vivo; for mortality at 336 h: N=10, read-out: Animals which died in 14 days, %
Excerpt: (§1) Acute toxicity in the rat, compound A, p.o.

rat = assay: Acute toxicity in the rat, p.o.; format: in vivo; conditions: for Animals which died in 14 days: N=10
Excerpt: as §1

[4] = Approximate acute toxicity in mice, p.o.; format: in vivo; conditions: in vivo; mouse, oral, 14 days
Excerpt: (§2) Approximate acute toxicity in mice, compound A, p.o.

mice = assay: Approximate acute toxicity in mice, p.o.; format: in vivo; conditions: for Number of animals which died in 14 days: mice
Excerpt: as §2

[5] = test system: fatty and cartilaginous tissue (kidney fat and sternum); assay: Tests for yellow coloration of fatty and cartilaginous tissue in the rat; format: in vivo, male rats, Chbb:THOM (SPF)
Procedure: The yellow coloration of fatty and cartilaginous tissue following the oral administration of 50 and 400 mg/kg of compound E and compound A once a day over a period of 51/2 weeks was investigated. The compounds were homogeneously suspended in 1.5% tylose by several hours' stirring. The compounds were administered through an esophageal tube. The volume administered was about 1.4 ml. 9 to 11 male rats [of the Chbb:THOM (SPF) strain] with a body weight of 263±10 gm were used for each dose. At different times, animals were taken from the four treated groups and one control group and the kidney fat and sternum were removed after the animal had been bled from the abdominal aorta.

[6] = test system: fatty and cartilaginous tissue (kidney fat and sternum); conditions: known compound, general statement; cited from earlier work
[7] = 0.5 h, shock 30 minutes after administration
[8] = 2.5 h, shock 150 minutes after administration
[9] = 5 h, shock 300 minutes after administration
[10] = 50 mg/kg oral once a day, 17 days
[11] = 50 mg/kg oral once a day, 36 days
[12] = 50 mg/kg oral once a day, 38 days
[13] = 50 mg/kg oral once a day, 39 days
[14] = 400 mg/kg oral once a day, 2 days
[15] = 400 mg/kg oral once a day, 4 days
[16] = 400 mg/kg oral once a day, 9 days
[17] = 400 mg/kg oral once a day, 17 days
[18] = 400 mg/kg oral once a day, 36 days
[19] = 400 mg/kg oral once a day, 38 days
[20] = 400 mg/kg oral once a day, 39 days

Structure (SMILES): N/C(=C1\C(=O)c2ccccc2[S+]1[O-])c1ccccc1Cl (centres unmarked) [B, (E)-2-[(amino)-2-chlorophenylmethylene]-benzo[b]thiophen-3(2H)-one-1-oxide]
- ED50 [1, 7]: 8.1 mg/kg
- ED50 [1, 8]: 7.4 mg/kg
- ED50 [1, 9]: 8.3 mg/kg

Structure (SMILES): CCN/C(=C1\C(=O)c2ccccc2[S+]1[O-])c1ccccc1 (centres unmarked) [C, (E)-2-[(ethylamino)phenylmethylene]-benzo[b]thiophen-3(2H)-one-1-oxide]
- ED50 [1, 7]: 17.1 mg/kg
- ED50 [1, 8]: 61 mg/kg
- ED50 [1, 9]: 93.9 mg/kg

Structure (SMILES): N/C(=C1\C(=O)c2ccccc2[S+]1[O-])c1ccccc1 (centres unmarked) [Compound A, (E)-2-[(amino)phenylmethylene]-benzo[b]thiophen-3(2H)-one-1-oxide]
- % protected ([2]; 1.56 mg/kg p.o.): 0%
- animals protected ([2]; 1.56 mg/kg p.o.): 0 animals
- % protected ([2]; 3.125 mg/kg p.o.): 67%
- animals protected ([2]; 3.125 mg/kg p.o.): 4 animals
- % protected ([2]; 6.25 mg/kg p.o.): 83%
- animals protected ([2]; 6.25 mg/kg p.o.): 5 animals
- % protected ([2]; 12.5 mg/kg p.o.): 100%
- animals protected ([2]; 12.5 mg/kg p.o.): 6 animals
- ED50 ([2]; Rattus norvegicus, 1 h, oral, one hour, read-out: ED50 (confidence limits, p≤0.05)): 3.25 mg/kg
- ED50 [1, 7]: 12.5 mg/kg
- ED50 [1, 8]: 35 mg/kg
- ED50 [1, 9]: 88 mg/kg
- LD50 at 336 h ([3]; oral, 14 days, read-out: LD50 (confidence limits, p≤0.05)): 2600 mg/kg
- mortality at 336 h ([3]; po, 1000 mg/kg p.o.): 0%
- mortality at 336 h ([3]; po, 2000 mg/kg p.o.): 40%
- mortality at 336 h ([3]; po, 4000 mg/kg p.o.): 70%
- therapeutic index (LD50/ED50) ([3]; po, LD50 / ED50, read-out: average toxic dose relative to average therapeutic dose): 800
- Animals which died in 14 days (rat; 1000 mg/kg p.o.): 0 animals
- Animals which died in 14 days (rat; 2000 mg/kg p.o.): 4 animals
- Animals which died in 14 days (rat; 4000 mg/kg p.o.): 7 animals
- toxic effects (rat; in vivo, po): only had toxic effects in very large dosages
- LD50 at 336 h [4]: > 4000 mg/kg
- Number of animals which died in 14 days (mice; 500 mg/kg p.o., N=10): 0 animals
- Number of animals which died in 14 days (mice; 1000 mg/kg p.o., N=16): 1 animals
- Number of animals which died in 14 days (mice; 1410 mg/kg p.o., N=10): 0 animals
- Number of animals which died in 14 days (mice; 2000 mg/kg p.o., N=10): 2 animals
- Number of animals which died in 14 days (mice; 4000 mg/kg p.o., N=10): 1 animals
- tolerance (mice; mouse, in vivo, po): well tolerated
- Number of animals with yellow kidney fat and sternum (number of animals dissected in brackets) [5, 10]: 0 (1) animals
- Number of animals with yellow kidney fat and sternum (number of animals dissected in brackets) [5, 11]: 0 (1) animals
- Number of animals with yellow kidney fat and sternum (number of animals dissected in brackets) [5, 12]: 0 (1) animals
- Number of animals with yellow kidney fat and sternum (number of animals dissected in brackets) [5, 13]: 0 (6) animals
- Number of animals with yellow kidney fat and sternum (number of animals dissected in brackets) [5, 14]: 0 (1) animals
- Number of animals with yellow kidney fat and sternum (number of animals dissected in brackets) [5, 15]: 0 (1) animals
- Number of animals with yellow kidney fat and sternum (number of animals dissected in brackets) [5, 16]: 0 (1) animals
- Number of animals with yellow kidney fat and sternum (number of animals dissected in brackets) [5, 17]: 0 (1) animals
- Number of animals with yellow kidney fat and sternum (number of animals dissected in brackets) [5, 18]: 0 (1) animals
- Number of animals with yellow kidney fat and sternum (number of animals dissected in brackets) [5, 19]: 0 (1) animals
- Number of animals with yellow kidney fat and sternum (number of animals dissected in brackets) [5, 20]: 0 (2) animals

Structure (SMILES): N/C(=C1/Sc2ccccc2C1=O)c1ccccc1 [Compound E, (E)-2-[(amino)phenylmethylene]-benzo[b]thiophen-3(2H)-one]
- undesirable side effect: yellow coloration of fatty and cartilaginous tissue [6]: strong yellow coloration
- Number of animals with yellow kidney fat and sternum (number of animals dissected in brackets) [5, 10]: 0 (1) animals
- Number of animals with yellow kidney fat and sternum (number of animals dissected in brackets) [5, 11]: 0 (1) animals
- Number of animals with yellow kidney fat and sternum (number of animals dissected in brackets) [5, 12]: 0 (1) animals
- Number of animals with yellow kidney fat and sternum (number of animals dissected in brackets) [5, 13]: 0 (6) animals
- Number of animals with yellow kidney fat and sternum (number of animals dissected in brackets) [5, 14]: 0 (1) animals
- Number of animals with yellow kidney fat and sternum (number of animals dissected in brackets) [5, 15]: 0 (1) animals
- Number of animals with yellow kidney fat and sternum (number of animals dissected in brackets) [5, 16]: 0 (1) animals
- Number of animals with yellow kidney fat and sternum (number of animals dissected in brackets) [5, 17]: 1 (1) animals
- degree of yellow coloration of kidney fat and sternum [5, 17]: very slight
- Number of animals with yellow kidney fat and sternum (number of animals dissected in brackets) [5, 18]: 1 (1) animals
- degree of yellow coloration of kidney fat and sternum [5, 18]: marked
- Number of animals with yellow kidney fat and sternum (number of animals dissected in brackets) [5, 19]: 1 (1) animals
- degree of yellow coloration of kidney fat and sternum [5, 19]: marked
- Number of animals with yellow kidney fat and sternum (number of animals dissected in brackets) [5, 20]: 5 (5) animals
- degree of yellow coloration of kidney fat and sternum [5, 20]: marked
- yellow coloration of the kidney fat and sternum ([5]; 400 mg/kg, from the 17th day p.a.): slight at first but became marked later
